Values of other authors as cited in patent publication US6441047B2, “Combination therapy for treating glaucoma” (Alcon Manufacturing Ltd.., priority 1995, dated 2002).

What was measured:
[1] = Drugs of the Future, 1994, 19, 905-909
[2] = Drugs of the Future, 1994, 19, 905-909; remark: listed apart in the source
[3] = Drugs of the Future, 1994, 19, 905-909; remark: listed apart in the source

oral bioavailability [3]: orally bioavailable
SMILES: OC(CN1CCC(Cc2ccc(F)cc2)CC1)c1ccc(Cl)cc1 (stereo not drawn) [eliprodil]
incidence of adverse effects upon administration [1]: low incidence of adverse effects | blood-brain barrier penetration [2]: effectively crosses the blood-brain barrier
